Data taken from patent publication US20240409542A1, “NOVEL COMPOUNDS” (Sitryx Therapeutics Limited, priority 2021, published 2024).
≈ marks a conversion by molar mass, not a printed value. Where two headings read alike, the source gives them in different places. Marks after values point to notes of the source that are not given here.

What was measured:
[1] = molecular target: recombinant human PKM2 (Homo sapiens (Human), UniProt P14618); assay: Human PKM2 activation assay (Kinase-Glo Plus luminescence); assay type: biochemical; settings: for EC50: activation of recombinant human PKM2, 4-parameter logistic fit, read-out: hPKM2 EC50; for Emax: read-out: hPKM2 Emax (%)
Experimental: Compound activation of recombinant human PKM2 pyruvate kinase activity was determined by biochemical assay. N-terminal His-tagged hPKM2 was sourced from R&D Systems and its substrates phosphoenolpyruvate (PEP) and ADP from Sigma-Aldrich and 2BScientific Ltd, respectively. The Kinase-Glo® Plus luminescence assay was from Promega. All other reagents were from Sigma-Aldrich. Test Compounds were prepared as 10 mM DMSO stocks and dilution series prepared in DMSO for direct dilution into Assay Buffer comprising 50 mM imidazole, 50 mM KCl, 7 mM MgCl2, 0.01% Tween20, 0.05% BSA (pH 7.2).
Human PKM2 was diluted into Assay Buffer comprising 50 mM imidazole, 50 mM KCl, 7 mM MgCl2, 0.01% Tween20, 0.05% BSA (pH 7.2) to a final concentration of 5 pM. Enzyme-Assay Buffer mix was dispensed into a 384-well shallow-well white-walled plate (PerkinElmer) and Test Compounds added by acoustic dispense (Echo®, Labcyte Inc.).
After 60 minutes' incubation on an orbital shaker (300 rpm, 26° C.), enzyme activity was quantified by the luminescent detection of generated ATP. Kinase-Glo® Plus reagent was added to each well and the plates incubated for a further 15 minutes on an orbital shaker in the dark (300 rpm, 26° C.) before luminescence measurement on a plate reader (PHERAstar® FSX, BMG Labtech).
EC50 and Emax values were determined from 4-parameter logistic fits of compound concentration-response curves.

[2] = test system: A549 cells; assay: A549 proliferation assay in low-serine medium (CellTiter-Glo); assay type: cell-based; settings: Homo sapiens, 72 h, 3 days, low-serine medium (20 μM L-serine)
Experimental: The effect of compounds of Formula (I) on A549 cell proliferation in low-serine medium was assessed using a luminescence assay of viable cell number (CellTiter-Glo® 2.0, Promega) duplexed with a fluorescent cytotoxicity assessment (CellTox™ Green, Promega). Cell culture reagents were from ThermoFisher unless specified otherwise. Assay reagents were from Sigma-Aldrich unless specified otherwise. Test Compounds were prepared as 10 mM DMSO stocks and dilution series prepared in DMSO for direct dilution into culture medium.
Cells were passaged every 3-4 days at 80-90% confluence. The cell monolayer was washed twice with room-temperature Ca^2+/Mg-free PBS and 4 ml room-temperature trypsin-EDTA added to the flask. After 5 minutes' incubation (37° C., 5% CO2) to detach cells, trypsin was quenched with 13 ml warmed complete growth medium and the cells harvested and diluted to 2.4×10^4 cells/ml for dispensing into 384-well clear-bottom black-walled plates (600 cells/well).
Following overnight incubation, growth medium was aspirated from each well and the cells washed twice with Assay Medium comprising Basal Medium Eagle supplemented with 3% heat-inactivated dialysed FBS plus 2 mM L-glutamine plus 20 μM L-serine (Sigma-Aldrich). After aspiration of the final wash medium, Assay Medium containing Test Compound was added to each well. DMSO vehicle controls were included on each plate.
Cells were incubated for 3 days in a humidified incubator (37° C., 5% CO2) at which point CellTox™ Green and CellTiter-Glo® reagents were prepared according to the manufacturer's instructions. Triton-X was added to HIGH wells for cytotoxicity determination and the plate incubated for 30 minutes (20° C., ambient humidity and pCO2). CellTox™ Green reagent was added to each well and the plate covered, placed on an orbital shaker @450 rpm for 2 minutes, and incubated in the dark for 15 minutes (20° C., ambient humidity and pCO2). Endpoint fluorescence was measured using a plate reader (PHERAstar® FSX, BMG Labtech).
Following cytotoxicity determination, CellTiter-Glo® reagent was added to each well and the plate placed on an orbital shaker @450 rpm for 2 minutes to lyse cells. Plates were incubated in the dark for 15-30 minutes (20° C., ambient humidity and pCO2) prior to endpoint luminescence measurement (PHERAstar® FSX, BMG Labtech).
Proliferation was calculated by normalizing luminescence signals to LOW controls obtained from a parallel plate processed at the time of Test Compound challenge and HIGH (DMSO vehicle) wells from the compound plate. IC50 values were determined from a 4-parameter logistic fit of compound concentration-response curves.

[3] = Kinetic aqueous solubility; settings: PBS pH 7.4, 200 μM (2% DMSO), RT; for solubility kinetic at 1.5 h: phosphate buffered saline (PBS) pH 7.4, pH 7.4, aqueous buffer, kinetic from dmso stock, Kinetic solubility (Ksol), (μg/ml)
Experimental: (§1) Phosphate buffered saline (PBS) pH 7.4 was prepared using PBS tablets as per the manufacturer's instructions. Compounds and marker stocks are prepared at 10 mM in DMSO.
(§2) Compounds were incubated at 200 μM (2% DMSO) in Millipore—MSS LB PC 10 or Porvair—ref: 36004 plates in the presence of the prepared PBS pH 7.4 solution for 1.5 h, at RT, with gentle shaking. […] The samples were then analysed in a 96 well UV Star analysis plate on a plate reader from 220 nm to 500 nm at 10 nm increments.
(§3) The concentration of the samples was calculated against the standard curves.

[4] = molecular target: recombinant human PKLR (Homo sapiens (Human), UniProt P30613); assay: Human PKLR activation assay (Kinase-Glo Plus luminescence); settings: for Emax: read-out: hPKLR Emax (%)
Experimental: Compound activation of recombinant human PKLR pyruvate kinase activity was determined by biochemical assay. N-terminal His-tagged enzyme was sourced from R&D Systems and its substrates phosphoenolpyruvate (PEP) and ADP from Sigma-Aldrich and 2BScientific Ltd, respectively. The Kinase-Glo® Plus luminescence assay was from Promega. All other reagents were from Sigma-Aldrich. Test Compounds were prepared as 10 mM DMSO stocks and dilution series prepared in DMSO for direct dilution into Assay Buffer comprising 50 mM imidazole, 50 mM KCl, 7 mM MgCl2, 0.01% Tween20, 0.05% BSA (pH 7.2).
Human PKLR was diluted into Assay Buffer to a final concentration of 5 pM. Enzyme-Assay Buffer mix was dispensed into 384-well shallow-well white-walled plates and Test Compounds added by acoustic dispense (Echo®, Labcyte Inc).

[5] = pH 7.4
Experimental: as §1, §2, §3

Chain of recombinant human PKLR (P30613 whole entry): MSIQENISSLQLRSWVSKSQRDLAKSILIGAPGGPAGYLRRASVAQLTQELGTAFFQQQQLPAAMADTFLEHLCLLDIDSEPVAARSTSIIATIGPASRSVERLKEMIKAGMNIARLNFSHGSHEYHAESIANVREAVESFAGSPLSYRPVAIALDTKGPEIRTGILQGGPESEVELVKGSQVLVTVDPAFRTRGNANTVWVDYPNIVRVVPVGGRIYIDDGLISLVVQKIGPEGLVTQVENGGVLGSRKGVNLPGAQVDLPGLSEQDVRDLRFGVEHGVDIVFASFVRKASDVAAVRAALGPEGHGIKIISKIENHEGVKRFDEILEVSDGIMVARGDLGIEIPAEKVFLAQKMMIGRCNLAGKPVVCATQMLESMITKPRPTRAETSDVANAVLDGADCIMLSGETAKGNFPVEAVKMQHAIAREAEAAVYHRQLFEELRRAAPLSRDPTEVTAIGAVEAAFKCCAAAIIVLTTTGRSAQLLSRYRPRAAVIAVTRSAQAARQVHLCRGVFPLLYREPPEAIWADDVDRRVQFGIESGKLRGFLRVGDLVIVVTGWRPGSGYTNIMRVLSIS
Chain of recombinant human PKM2 (P14618 whole entry): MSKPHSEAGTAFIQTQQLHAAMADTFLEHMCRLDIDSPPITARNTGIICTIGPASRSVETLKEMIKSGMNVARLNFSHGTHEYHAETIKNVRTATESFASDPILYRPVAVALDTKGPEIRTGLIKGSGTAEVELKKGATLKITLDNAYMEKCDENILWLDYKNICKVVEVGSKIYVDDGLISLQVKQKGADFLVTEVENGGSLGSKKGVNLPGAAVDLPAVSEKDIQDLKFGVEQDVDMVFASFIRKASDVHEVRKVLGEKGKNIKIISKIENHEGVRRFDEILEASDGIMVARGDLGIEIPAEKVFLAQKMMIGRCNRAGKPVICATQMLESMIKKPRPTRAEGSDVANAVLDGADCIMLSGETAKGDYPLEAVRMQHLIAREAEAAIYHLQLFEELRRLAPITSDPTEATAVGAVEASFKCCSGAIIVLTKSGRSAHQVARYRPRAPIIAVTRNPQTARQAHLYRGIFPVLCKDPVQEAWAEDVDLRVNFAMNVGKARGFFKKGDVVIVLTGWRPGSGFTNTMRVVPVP

Compound	EC50 [1] [nM]	Emax [1] [%]	IC50 [2] [nM]	Kinetic solubility (Ksol); (μg/ml) ([3]; 1.5 h)	solubility kinetic at 1.5 h [3] [µg/mL]	EC50 [4] [nM]	Emax [4] [%]	Kinetic solubility (Ksol); ([3]; 1.5 h) [µg/mL]	hPKM2 Emax (%) ([1]; percentage activation normalised to DMSO vehicle (LOW) and 5 μM TEPP-46 (HIGH))	Kinetic solubility (Ksol); [5] [µg/mL]
CC(=O)N1CCc2c(n(C)c3c(=O)n(Cc4cccc(N)c4)ncc23)C1 [Example 8, 7-acetyl-3-(3-aminobenzyl)-5-methyl-3,5,6,7,8,9-hexahydro-4H-pyrido [4′,3′:4,5]pyrrolo[2,3-d]pyridazin-4-one]	1740	83.1	25.4		> 70.3	> 320	< 90			
Cn1c2c(c3cnn(Cc4cccc(N)c4)c(=O)c31)CCN(S(=O)(=O)C1CC1)C2 [Example 9, 3-(3-aminobenzyl)-7-(cyclopropylsulfonyl)-5-methyl-3,5,6,7,8,9-hexahydro-4H-pyrido[4′,3′:4,5]pyrrolo[2,3-d]pyridazin-4-one]	1770	47.3	25.8		43.1 (≈ 104 µM)	> 320	< 90			
Cc1ncc(S(=O)(=O)N2CCc3c(n(C)c4c(=O)n(Cc5cccc(N)c5)ncc34)C2)s1 [Example 10, 3-(3-aminobenzyl)-5-methyl-7-((2-methylthiazol-5-yl)sulfonyl)-3,5,6,7,8,9-hexahydro-4H-pyrido[4′,3′:4,5]pyrrolo[2,3-d]pyridazin-4-one]	4680	72	117		17.1 (≈ 36.4 µM)	> 320	90 to 100			
Cn1c2c(c3cnn(Cc4cccc(N)c4)c(=O)c31)CCN(S(=O)(=O)c1ccccc1)C2 [Example 11, 3-(3-aminobenzyl)-5-methyl-7-(phenylsulfonyl)-3,5,6,7,8,9-hexahydro-4H-pyrido[4′,3′:4,5]pyrrolo[2,3-d]pyridazin-4-one]	846	88.4	14		9.9 (≈ 22 µM)	60 to 320	< 90			
Cn1c2c(c3cnn(Cc4cc[nH]n4)c(=O)c31)CCN(S(=O)(=O)c1ccccc1)C2 [Example 12, 3-((1H-pyrazol-3-yl)methyl)-5-methyl-7-(phenylsulfonyl)-3,5,6,7,8,9-hexahydro-4H-pyrido[4′,3′:4,5]pyrrolo[2,3-d]pyridazin-4-one]	1490	79.7	13.5		61.6 (≈ 145 µM)	60 to 320	100 to 117			

These reach a lower EC50 [1]. Values come first.

EC50 [1] [nM]	Emax [1] [%]	IC50 [2] [nM]	Kinetic solubility (Ksol); (μg/ml) ([3]; 1.5 h)	solubility kinetic at 1.5 h [3] [µg/mL]	EC50 [4] [nM]	Emax [4] [%]	Kinetic solubility (Ksol); ([3]; 1.5 h) [µg/mL]	hPKM2 Emax (%) ([1]; percentage activation normalised to DMSO vehicle (LOW) and 5 μM TEPP-46 (HIGH))	Kinetic solubility (Ksol); [5] [µg/mL]	Compound
180	86.9	1.6	12.85* μg/ml	13.9 (≈ 33.5 µM)	60 to 320	90 to 100				Cn1c2c(c3cnn(Cc4ccc5c(c4)CCO5)c(=O)c31)CCN(S(C)(=O)=O)C2 [Example 1, 3-((2,3-dihydrobenzofuran-5-yl)methyl)-5-methyl-7-(methylsulfonyl)-3,5,6,7,8,9-hexahydro-4H-pyrido[4′,3′:4,5]pyrrolo[2,3-d]pyridazin-4-one]
306	93.7	4.5		36.1 (≈ 89.5 µM)	60 to 320	100 to 117	36.19			COc1ccc(Cn2ncc3c4c(n(C)c3c2=O)CN(S(C)(=O)=O)CC4)cn1 [Example 2, 3-((6-methoxypyridin-3-yl)methyl)-5-methyl-7-(methylsulfonyl)-3,5,6,7,8,9-hexahydro-4H-pyrido[4′,3′:4,5]pyrrolo[2,3-d]pyridazin-4-one]
303	81.4	10.5	17.91* μg/ml	19 (≈ 45.6 µM)	60 to 320	100 to 117				CC(O)c1cccc(Cn2ncc3c4c(n(C)c3c2=O)CN(S(C)(=O)=O)CC4)c1 (stereo not shown) [Example 3, 3-(3-(1-hydroxyethyl)benzyl)-5-methyl-7-(methylsulfonyl)-3,5,6,7,8,9-hexahydro-4H-pyrido[4′,3′:4,5]pyrrolo[2,3-d]pyridazin-4-one]
591	96.7	13.3		5.13 (≈ 12.2 µM)	60 to 320	< 90				COc1cccc(Cn2ncc3c4c(n(C)c3c2=O)CN(S(C)(=O)=O)CC4)c1F [Example 5, 3-(2-fluoro-3-methoxybenzyl)-5-methyl-7-(methylsulfonyl)-3,5,6,7,8,9-hexahydro-4H-pyrido[4′,3′:4,5]pyrrolo[2,3-d]pyridazin-4-one]
317	85.3	16.8	0.87* μg/ml	0.64 (≈ 1.46 µM)	43.5 to 60	< 90				COc1cc(F)c(Cn2ncc3c4c(n(C)c3c2=O)CN(S(C)(=O)=O)CC4)c(F)c1 [Example 6, 3-(2,6-difluoro-4-methoxybenzyl)-5-methyl-7-(methylsulfonyl)-3,5,6,7,8,9-hexahydro-4H-pyrido[4′,3′:4,5]pyrrolo[2,3-d]pyridazin-4-one]
346	107	0.9		72.2 (≈ 186 µM)	60 to 320	100 to 117				Cn1c2c(c3cnn(Cc4cccc(N)c4)c(=O)c31)CCN(S(C)(=O)=O)C2 [Example 7, 3-(3-aminobenzyl)-5-methyl-7-(methylsulfonyl)-3,5,6,7,8,9-hexahydro-4H-pyrido[4′,3′:4,5]pyrrolo[2,3-d]pyridazin-4-one]
83								62.2	30.29	(3-((1H-pyrrolo[2,3-c]pyridin-3-yl)methyl)-N-ethyl-5-methyl-4-oxo-5,6,8,9-tetrahydro-3H-pyrido[4′,3′:4,5]pyrrolo[2,3-d]pyridazine-7(4H)-sulfonamide [Example 30]
